Experimental data: ChEMBL document CHEMBL3301361, “Experimental in vitro DMPK and physicochemical data on a set of publicly disclosed compounds”
Non-standard residues stand in square brackets, D forms with d. Residues, ends and D or L forms follow the SMILES beside them. Phe(2-Me) = Cc1ccccc1C[C@H](N)C(=O)O

Assay: in vitro
Conditions: human, plasma, PPB

SMILES	fraction unbound at 5 h
Cc1cnc(Nc2cc(N3CCOCC3)nc(N[C@@H](C)c3ccc(F)cn3)n2)s1	0.0262
Cc1cccc(Nc2nc(NCc3ccco3)c3ccccc3n2)c1	0.0007
COc1cccc(-c2cc3c(N[C@H]4CCCNC4)ncc(C(N)=O)c3s2)c1	0.0437
Cc1ccc(-c2cc(C(=O)NCc3cn(C)nc3C)c3cc(Br)ccc3n2)cc1	0.0063
Cc1nc(N2CCOCC2)c2cc(-c3ccccc3)sc2n1	0.0042
CNC(=O)c1[nH]cnc1C(=O)Nc1ccc(Cl)cc1	0.0268
Cc1sc2c(c1C)c(=O)n(-c1ccc(F)cc1)c(=O)n2CC(=O)NCc1ccco1	0.0268
COc1cccc(C(=O)N2C(C(=O)O)CSC2c2ccccc2Cl)c1 (centres undefined)	0.0139
O=C(Nc1ccc(Cl)cc1)Nc1nnc(-c2ccncc2)s1	0.0017
O=C(CCS(=O)(=O)c1ccc(Br)cc1)NCCc1ccccc1	0.04
CCn1cc(CNC(=O)c2cc(-c3ccc(C)cc3)nc3ccc(Br)cc23)c(C)n1	0.0011
O=C(c1ccccc1)N1CCC(c2nc3ccccc3o2)CC1	0.0457
CCOC(=O)[C@H](CCc1ccccc1)N[C@@H](C)C(=O)N1Cc2ccccc2C[C@H]1C(=O)O	0.0418
CCOc1cc2nnc(C(N)=O)c(Nc3ccc(F)cc3F)c2cc1N1CCN(C)CC1	0.0383
C[C@H]1CN(Cc2cc(Cl)ccc2OCC(=O)O)CCN1S(=O)(=O)c1ccccc1	0.0274
CC(C)(C)COc1ccc(-n2cc(C(=O)O)cn2)cc1C#N	0.0224
O=C(CN1CCCC1)N1c2ccccc2Sc2ccc(C(F)(F)F)cc21	0.0229
COc1ccc(Cl)cc1NC(=O)CCS(=O)(=O)c1ccc(C)cc1	0.0219
CN[C@@H](C)C(=O)N[C@H](C(=O)N[C@H]1CCCN(CCc2ccc(Cl)cc2)C1)C(C)(C)C	0.0293
CN[C@@H](C)C(=O)N[C@H](C(=O)N[C@H]1CCCN(CCc2ccc(Br)cc2)C1)C(C)(C)C	0.0229
COc1cc(OC)c(S(=O)(=O)N2c3ccccc3CC2C)cc1NC(C)=O (centres undefined)	0.0437
COc1cc(OC)c(S(=O)(=O)N2c3ccccc3CCC2C)cc1NC(=O)CSc1ccncc1 (centres undefined)	0.0293
N#Cc1c(-c2ccc(-c3ccccc3O)cc2)nc2ccncc2c1O	0.0026
N#Cc1c(-c2ccc(-c3ccncc3Cl)cc2)nc2ccncc2c1O	0.0055

SMILES	fraction unbound at 5 h
N#Cc1c(-c2ccc(-c3cccnc3)cc2)nc2ccncc2c1O	0.007
CNc1c(Br)cnc2[nH]c(-c3ccc(OCCN4CCOCC4)cc3)nc12	0.0149
COc1ccc(-c2nc3c(NCCCNC(=O)c4cccnc4)c(Br)cnc3[nH]2)cc1	0.013
CC(C)COc1cccc(/C=C2\SC(=O)NC2=O)c1N1CCC[C@@H](N)C1	0.0119
O=C(O)/C=C/c1cccc(-c2cnc3[nH]ccc3c2)c1	0.0219
CCNC(=O)c1cc2c(-n3ccc(C(F)(F)F)n3)c(-c3cncc(-c4n[nH]c(=O)o4)c3)cnc2[nH]1	0.0437
CC(=O)Nc1ccc2c(c1)N(c1cc(NC3CC3)n3ncc(C#N)c3n1)CCC2	0.0262
CC(=O)Nc1ccc2c(c1)c(-c1cc(NC3CC3)n3ncc(C#N)c3n1)cn2CCO	0.0179
COC(=O)CCn1cc(-c2cc(NC3CC3)n3ncc(C#N)c3n2)c2cc(NC(C)=O)ccc21	0.016
COc1ncc(-c2cccc3c2C[C@H](NC(=O)c2ccc(OCCC(F)(F)F)nc2)CO3)cn1	0.0133
O=C(O)C(c1ccccc1)N1CCO[C@H](CN2CCC(Oc3ccc(Cl)c(Cl)c3)CC2)C1 (some centres undefined)	0.0064
O=C(O)COc1ccccc1N1CCC(CN2CCC(Oc3ccc(Cl)c(Cl)c3)CC2)CC1	0.0114
Cc1cc(-c2cc(=O)[nH]c(NCc3cccc4ccccc34)n2)ccn1	0.0025
CCN(Cc1cccc2ccccc12)c1cc(N2CCOCC2)nc(=O)[nH]1	0.0358
Cc1cn([C@H]2CCCN(Cc3ccc(C(=O)O)c(Oc4cccc(Cl)c4)c3)C2)c(=O)[nH]c1=O	0.0268
Cc1cccc(Oc2cc(CN3CCC[C@H](n4cc(C)c(=O)[nH]c4=O)C3)ccc2C(=O)O)c1	0.0383
CC(C)COc1ccc(-c2cc(=O)[nH]c(N)n2)cc1	0.0374
CC(C)COc1ccc(-c2cc(=O)[nH]c(N)n2)cc1C#N	0.0409
Cc1csc(NC(=O)COc2ncnc3c2cnn3-c2ccccc2Cl)n1	0.0082
COc1cc(OC)c(S(=O)(=O)N2c3ccccc3Oc3ccccc32)cc1NC(=O)Cc1ccnc(F)c1	0.0099
O=C(NC[C@@H](O)CN1CCC(Oc2ccc(Cl)c(Cl)c2)CC1)c1c[nH]c(=O)c2cc(F)ccc12	0.0108
COc1cc(OC)c(S(=O)(=O)N2c3ccccc3Oc3ccccc32)cc1NC(=O)/C=C/C(=O)O	0.024
Cc1cn([C@H]2CCCN(S(=O)(=O)c3cccc(Oc4ccccc4)c3)C2)c(=O)[nH]c1=O	0.0262
Cc1cn([C@H]2CCCN(S(=O)(=O)c3ccc(C#N)c(Oc4cccc(Cl)c4)c3)C2)c(=O)[nH]c1=O	0.0229

SMILES	fraction unbound at 5 h
COc1ccc(S(=O)(=O)N2CCC[C@H](n3cc(C)c(=O)[nH]c3=O)C2)cc1Oc1cccc(Cl)c1	0.0251
COCCNC(=O)c1ccc(Nc2ncc3cc(-c4ccncc4C)ccc3n2)cc1	0.0139
COCCNC(=O)c1ccc(Nc2ncc3cc(-c4cnccc4C)ccc3n2)cc1	0.0262
CN(C)CCNC(=O)c1ccc(Nc2ncc3cc(-c4ccncc4)ccc3n2)cc1	0.0111
c1cc(-c2ccc3nc(Nc4ccc(OCCN5CCCC5)cc4)ncc3c2)ccn1	0.028
COc1cccc(OC)c1OCCNCC1COc2ccccc2O1 (centres undefined)	0.024
C[C@H](CO)Nc1nc(SCc2cccc(F)c2F)nc2[nH]ncc12	0.035
O=C(Nc1ccccc1-c1cn2c(CN3CCNCC3)csc2n1)c1cnc2ccccc2n1	0.0099
COc1ccc2c(O)cc(=O)n(Cc3ccc(-c4ccccc4-c4nn[nH]n4)cc3)c2c1	0.0011
CN(C)c1cc(NC(=O)Nc2cccc(Cl)c2)c2ccccc2n1	0.0014
O=C(O)COn1c(-c2ccccc2)nc2ccc([N+](=O)[O-])cc21	0.0139
Cc1cc(Nc2nc(N[C@@H](C)c3ccc(F)cc3)ncc2Cl)n[nH]1	0.009
Cc1ncc(NC(=O)c2cc(NC(=O)c3cc(F)cc(C(F)(F)F)c3)ccc2Cl)s1	0.0035
O=C(Nc1ccc(Cl)c(C(=O)Nc2cncs2)c1)c1cccc(Cl)c1	0.002
Cc1ncc(NC(=O)c2cc(NC(=O)c3cccc(C(F)(F)F)c3)ccc2C)s1	0.0119
Cc1ncc(NC(=O)c2cc(NC(=O)c3cccc(C(F)(F)F)c3)ccc2Cl)s1	0.004
Cc1ncc(NC(=O)c2cc(NC(=O)c3cccc(Cl)c3)ccc2Cl)s1	0.002
CNC(=O)c1cc(Oc2ccc3c(c2)nc(Nc2ccc(C(F)(F)F)cc2)n3C)ccn1	0.005
COc1ccc(N(C(=O)c2ccccc2)C(C(=O)NC2CCCC2)c2ccccc2F)c(OC)c1 (centres undefined)	0.0033
O=C(COc1cccc(Cl)c1)NC1CCN(Cc2ccn(-c3ccc(C(F)(F)F)cc3)c2)CC1	0.0072
CCOc1cc2ncc(C(N)=O)c(Nc3cccc(Cl)c3Cl)c2cc1N1CCN(CC)CC1	0.0183
CC(C)Oc1cc2ncc(C(N)=O)c(Nc3cccc(Cl)c3F)c2cc1N1CCN(C)CC1	0.0488
CCOc1cc2ncc(C(N)=O)c(Nc3cccc(Cl)c3Cl)c2cc1N1CCN(C(C)C)CC1	0.0146
CCOc1cc2ncc(C(N)=O)c(Nc3cccc(Cl)c3Cl)c2cc1N1CCCN(C)CC1	0.0163

SMILES	fraction unbound at 5 h
COc1cc2ncc(C(N)=O)c(Nc3cccc(Cl)c3Cl)c2cc1N1CCN(C)CC1	0.0447
CN1CCN(c2ccc3ncc(C(N)=O)c(Nc4cccc(Cl)c4Cl)c3c2)CC1	0.0457
CCOc1cc2ncc(C(N)=O)c(Nc3ccc(F)cc3F)c2cc1N1CCCN(C2CC2)CC1	0.0219
CC(C)Oc1cc2ncc(C(N)=O)c(Nc3ccc(F)cc3F)c2cc1N1CCN(C)CC1	0.0171
COc1cc2ncc(C(N)=O)c(Nc3ccc(Cl)cc3Cl)c2cc1N1CCN(C)CC1	0.0321
CN1CCN(c2cc3c(Nc4cccc(Cl)c4Cl)c(C(N)=O)cnc3cc2F)CC1	0.0437
COc1cc2ncc(C(N)=O)c(Nc3ccc(Cl)c(Cl)c3)c2cc1N1CCN(C)CC1	0.0358
CCOc1cc2ncc(C(N)=O)c(Nc3ccc(F)c(Cl)c3)c2cc1N1CCN(C)CC1	0.0343
COc1cc2ncc(C(N)=O)c(Nc3cccc(Cl)c3Cl)c2cc1NCCN1CCCCC1	0.0209
CCOc1cc2ncc(C(N)=O)c(Nc3cccc(Cl)c3Cl)c2cc1N1CCN(CCO)CC1	0.0477
CCOc1cc2ncc(C(N)=O)c(Nc3cccc(Cl)c3Cl)c2cc1N1CCN(CCOC)CC1	0.0171
CCOc1cc2ncc(C(N)=O)c(Nc3ccc(F)cc3F)c2cc1N1CCN(CC)CC1	0.0457
O=C(Nc1ccc(CCO)cc1)c1cc2cc(Cl)ccc2[nH]1	0.0139
Cc1ncc(NC(=O)c2cc(NC(=O)c3cc(F)cc(Cl)c3)ccc2Cl)s1	0.004
CC(C)Oc1cc2ncc(C(N)=O)c(Nc3cccc(Cl)c3Cl)c2cc1N1CCN(C)CC1	0.0139
O=C(Nc1ccc(Cl)c(C(=O)Nc2cncs2)c1)c1cccc(C(F)(F)F)c1	0.004
CC(C)Oc1cc2ncc(C(N)=O)c(Nc3ccc(Cl)c(Cl)c3)c2cc1N1CCN(C)CC1	0.0099
O=c1[nH]cnc2scc(-c3cccs3)c12	0.0111
O=C(Nc1cccc2cccnc12)c1ccc(N2C(=O)[C@@H]3[C@H](C2=O)[C@@H]2C=C[C@H]3C2)cc1	0.0111
Cc1nc(C(F)(F)F)ccc1C(=O)Nc1ccc(Cl)c(-c2ccccn2)c1	0.0099
CN1CCN(C2=Nc3ccccc3Nc3ccc(OS(=O)(=O)C(F)(F)F)cc32)CC1	0.0358
COc1ccc(C[C@H](N)C(=O)N[C@@H](Cc2ccccc2C)C(N)=O)cc1 (H-Tyr(Me)-[Phe(2-Me)]-NH2)	0.36
